The results in this text go back to US20240051937A1, “ISOINDOLINONE AMIDE COMPOUNDS USEFUL TO TREAT DISEASES ASSOCIATED WITH GSPT1” (Monte Rosa Therapeutics, Inc., priority 2021, published 2024).

Format in all cases: cell-based
The target in assay [1] is T1, ZFP91 (Homo sapiens, UniProt Q96JP5+Q96SW2).
T1 construct: MM1S cells were purchased from ATCC (cat. Number CRL-2974); host or cells: MM1S cells
As to the kind of experiment: Selectivity determination by Western blot assay in MM1S cells: ZFP91. As to conditions: MM1S cells, 0.3, 3 and 30 μM, 6 hours. On the procedure: (§1) MM1S cells were purchased from ATCC (cat. Number CRL-2974), sub-cultured in […] RPMI 1640 with 10% FBS, supplemented with Ix P/S and incubated at 37° C., […]. Compounds were stored as 10 mM DMSO stock. For the assay, MM1S cells (3 million cells/well) were plated in 6-well plates and incubated over night. Cells were treated with respective compounds using a serial dilution: 0.3 μM, 3 μM and 30 μM as well as a vehicle only (DMSO) control for 6 hours. Media with suspension cells was subsequently transferred to 15 mL conical tubes, wells rinsed twice with ice-cold PBS and merged with cell suspension in respective 15 mL conical tube. Cells were spinned down, supernatant aspirated, pellets resuspended in ice-cold PBS and transferred to microtubes. Cells were spinned down, supernatant aspirated and pellets resuspended in 120 μL RIPA lysis buffer supplemented with protease and phosphatase inhibitors. Cell lysates were incubated on ice for 20 minutes followed by centrifugation at >20,000×g for 5 min. Supernatants were transferred to fresh microtubes and stored at −80° C. Total protein concentration was determined using a BCA assay with a BSA standard curve and concentration of all samples was adjusted to 1 mg/mL. […] Chemiluminescence signals were then detected using a LAS-4000 system with default settings and signals quantified using Image Studio Lite software (version 5.2). […]
A general note: Immunoblotting shows a protein as a band on a membrane.

Assay [2] deals with T2, CK1alpha (Homo sapiens, UniProt P48729+Q96SW2).
T2 construct: MM1S cells were purchased from ATCC (cat. Number CRL-2974); host or cells: MM1S cells
T2 sequence (P48729 whole entry): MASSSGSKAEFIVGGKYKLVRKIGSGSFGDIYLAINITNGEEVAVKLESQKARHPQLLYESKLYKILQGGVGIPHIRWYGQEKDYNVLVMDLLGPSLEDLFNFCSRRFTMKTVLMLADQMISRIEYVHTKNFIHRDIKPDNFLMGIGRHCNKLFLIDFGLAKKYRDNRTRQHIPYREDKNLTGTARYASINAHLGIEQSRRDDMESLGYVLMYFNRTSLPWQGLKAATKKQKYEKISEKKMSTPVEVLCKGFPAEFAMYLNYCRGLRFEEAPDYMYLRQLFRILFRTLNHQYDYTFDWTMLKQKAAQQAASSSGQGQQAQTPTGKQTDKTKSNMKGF
T2 sequence (Q96SW2 whole entry): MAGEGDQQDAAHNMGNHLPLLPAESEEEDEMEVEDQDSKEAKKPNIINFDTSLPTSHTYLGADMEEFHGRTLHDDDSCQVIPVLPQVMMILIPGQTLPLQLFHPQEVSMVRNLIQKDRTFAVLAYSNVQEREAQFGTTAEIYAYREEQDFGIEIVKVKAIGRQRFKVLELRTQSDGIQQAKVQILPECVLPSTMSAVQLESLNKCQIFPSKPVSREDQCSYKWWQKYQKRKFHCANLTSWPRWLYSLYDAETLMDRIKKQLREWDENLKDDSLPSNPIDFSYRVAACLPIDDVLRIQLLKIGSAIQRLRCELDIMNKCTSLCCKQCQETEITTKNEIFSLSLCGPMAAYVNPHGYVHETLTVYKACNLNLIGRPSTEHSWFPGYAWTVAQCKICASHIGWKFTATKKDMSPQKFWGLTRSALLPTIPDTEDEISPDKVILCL
T2 sequence (Q16531 whole entry partner): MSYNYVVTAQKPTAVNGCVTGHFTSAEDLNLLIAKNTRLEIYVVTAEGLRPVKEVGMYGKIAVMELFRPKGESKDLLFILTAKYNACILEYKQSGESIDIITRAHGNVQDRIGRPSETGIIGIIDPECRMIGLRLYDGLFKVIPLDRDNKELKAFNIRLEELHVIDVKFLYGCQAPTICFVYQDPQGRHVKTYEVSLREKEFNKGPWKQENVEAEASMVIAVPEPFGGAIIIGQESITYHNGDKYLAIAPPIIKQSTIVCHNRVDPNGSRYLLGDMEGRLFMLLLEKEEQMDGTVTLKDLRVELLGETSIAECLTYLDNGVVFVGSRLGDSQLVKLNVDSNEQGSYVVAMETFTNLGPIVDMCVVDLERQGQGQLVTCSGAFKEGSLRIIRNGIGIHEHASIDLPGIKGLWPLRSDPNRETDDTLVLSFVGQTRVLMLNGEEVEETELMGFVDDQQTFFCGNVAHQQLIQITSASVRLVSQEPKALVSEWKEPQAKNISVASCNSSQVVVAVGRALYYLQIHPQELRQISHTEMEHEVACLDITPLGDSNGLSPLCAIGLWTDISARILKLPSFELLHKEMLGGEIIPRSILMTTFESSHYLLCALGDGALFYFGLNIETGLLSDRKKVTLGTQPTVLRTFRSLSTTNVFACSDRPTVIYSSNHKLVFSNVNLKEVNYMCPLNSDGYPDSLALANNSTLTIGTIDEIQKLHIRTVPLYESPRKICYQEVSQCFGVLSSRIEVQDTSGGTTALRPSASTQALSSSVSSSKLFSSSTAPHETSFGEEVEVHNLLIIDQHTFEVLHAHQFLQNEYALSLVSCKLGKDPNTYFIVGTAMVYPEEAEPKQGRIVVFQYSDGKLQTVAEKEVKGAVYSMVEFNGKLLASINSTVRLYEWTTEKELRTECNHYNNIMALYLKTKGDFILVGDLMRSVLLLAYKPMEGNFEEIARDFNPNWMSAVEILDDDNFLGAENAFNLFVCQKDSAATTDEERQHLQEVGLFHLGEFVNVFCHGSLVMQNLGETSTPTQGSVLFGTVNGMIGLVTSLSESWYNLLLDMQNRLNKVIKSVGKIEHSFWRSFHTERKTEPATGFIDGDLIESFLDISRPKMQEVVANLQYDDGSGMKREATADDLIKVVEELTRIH
As to the kind of experiment: Selectivity determination by Western blot assay in MM1S cells: CK1alpha. As to conditions: MM1S cells, 0.3, 3 and 30 μM, 6 hours. The protocol: as §1

Assay [3] deals with GSPT1 (Homo sapiens, UniProt P15170+Q96SW2). The experiment in a line: Immunofluorescence assay for GSPT1 degradation in CAL-Si cells. The settings on record: 6 hours treatment. On the set-up: CAL-Si cells were purchased from DSMZ (cat. Number ACC302); host or cells: CAL-Si (CAL-51) cells. A digest of the protocol:
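CAL-Si cells exposed 6 h to compound serial dilutions (30 μM to 0.1 nM), then fixed and immunostained for GSPT1 with DAPI/phalloidin counterstain. Per-cell mean GSPT1 fluorescence from high-content imaging, normalized to controls; DC50 by non-linear regression.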

Setting [4] is: read-out: Code: activity for GSPT1 degradation (DC50).
[5] abbreviates: GSPT1 degradation, read-out: DC50.

Where two headings read alike, the source gives them in different places. Bounds are passed on as bounds.

GSPT1, sequence (P15170 whole entry): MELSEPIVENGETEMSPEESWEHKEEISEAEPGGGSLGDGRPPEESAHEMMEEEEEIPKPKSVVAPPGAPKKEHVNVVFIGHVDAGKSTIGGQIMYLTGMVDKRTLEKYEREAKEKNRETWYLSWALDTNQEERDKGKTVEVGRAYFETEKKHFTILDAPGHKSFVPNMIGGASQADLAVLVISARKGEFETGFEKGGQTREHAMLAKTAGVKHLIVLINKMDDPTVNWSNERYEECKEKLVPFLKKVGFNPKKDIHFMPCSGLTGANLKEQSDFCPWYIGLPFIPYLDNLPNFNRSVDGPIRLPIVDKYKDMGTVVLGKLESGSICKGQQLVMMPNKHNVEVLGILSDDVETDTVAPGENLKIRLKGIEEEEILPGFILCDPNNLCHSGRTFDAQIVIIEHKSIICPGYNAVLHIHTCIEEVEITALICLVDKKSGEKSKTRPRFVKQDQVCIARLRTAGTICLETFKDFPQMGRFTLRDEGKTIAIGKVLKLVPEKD
GSPT1, sequence (Q96SW2 whole entry): as the sequence (Q96SW2 whole entry) above
GSPT1, sequence (Q16531 whole entry partner): as the sequence (Q16531 whole entry partner) above
T1 sequence (Q96JP5 2-570 limits assumed): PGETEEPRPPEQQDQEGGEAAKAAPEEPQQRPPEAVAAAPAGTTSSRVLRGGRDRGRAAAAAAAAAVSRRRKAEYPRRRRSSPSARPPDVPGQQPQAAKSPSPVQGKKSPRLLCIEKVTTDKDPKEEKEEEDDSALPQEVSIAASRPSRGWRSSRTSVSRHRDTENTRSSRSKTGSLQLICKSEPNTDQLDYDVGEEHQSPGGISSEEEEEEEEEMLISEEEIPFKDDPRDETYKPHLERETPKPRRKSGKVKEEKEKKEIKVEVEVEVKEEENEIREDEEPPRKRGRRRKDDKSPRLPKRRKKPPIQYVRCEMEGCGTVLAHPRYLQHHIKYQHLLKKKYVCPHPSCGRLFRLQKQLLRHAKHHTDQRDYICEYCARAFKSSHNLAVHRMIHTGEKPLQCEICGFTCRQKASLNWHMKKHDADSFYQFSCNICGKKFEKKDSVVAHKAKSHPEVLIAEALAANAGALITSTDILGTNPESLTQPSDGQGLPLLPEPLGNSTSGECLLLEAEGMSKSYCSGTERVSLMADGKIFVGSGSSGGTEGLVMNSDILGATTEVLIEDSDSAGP
T1 sequence (Q96SW2 whole entry): as the sequence (Q96SW2 whole entry) above
T1 sequence (Q16531 whole entry partner): as the sequence (Q16531 whole entry partner) above

In the case of `Cc1ccc(NC(=O)CCc2ccc3c(c2)C(=O)N(C2CCC(=O)NC2=O)C3)cc1Cl` (centres unmarked) [Compound 1], the ZFP91 degradation code entry in assay [1] was “B (B represents trace degradation at 30 μM (below 20%))”. In assay [2], the CK1alpha degradation code entry is listed as “B (B represents trace degradation at 30 μM (below 20%))”. Also, the DC50 in assay [3] (setting [4]) was at most 30 nM; in assay [3] (setting [5]) it was 16 nM.
For `Cc1c(Cl)cc(NC(=O)CCc2ccc3c(c2)C(=O)N(C2CCC(=O)NC2=O)C3)cc1CN1CCOCC1` (centres unmarked) [Compound 2], the ZFP91 degradation code entry in assay [1] is given as “C (C represents weak degradation at 30 μM (below 50%))”. Besides, the CK1alpha degradation code entry in assay [2] is “C (C represents weak degradation at 30 μM (below 50%))”. Besides, the DC50 in assay [3] (setting [4]) was at most 30 nM; in assay [3] (setting [5]), 6 nM.

As usually defined, the DC50 is the midpoint of the concentration-degradation curve.
